# Data reported in US12577232B2, “N-heterocycle substituted tryptamine derivatives and methods of using” (ENVERIC B[…] INC., priority 2024, dated 2026).
# Experiments:
# 5-HT2A receptor [1] = biological target: T1, 5-HT2A receptor (Homo sapiens, UniProt P28223); assay: Functional cell-based 5-HT2A assay, agonism mode (CHO-K1/5-HT2A, Fluo-8 calcium flux); settings: CHO-K1/5-HT2A cells
# T1 construct: purchased PerkinElmer ES-313-M400UA
# Experimental: Herein, functional, cell-based assays were conducted to determine (1) agonist potency and efficacy of drugs at the 5-HT2A receptor (agonist mode), and (2) antagonist potency at the 5-HT2A receptor (antagonist mode).
# All cells were grown and maintained as a monolayer in Ham's F12 nutrient mix supplemented with 10% fetal bovine serum (FBS) and 400 μg/mL geneticin (G418) all from ThermoFisher Scientific and used according to the manufacturer's instructions. Cells were cultured and incubated at 37° C. in a humidified oxygen atmosphere with 5% CO2. To evaluate the activation of 5-HT2A signal transduction, cells were first seeded in tissue culture-treated, black-walled, clear-bottom 96-well plates (Thermo Scientific) at a density of 40,000 cells/well in 100 pl Ham's F12 nutrient mix supplemented with 2% FBS. Cells were cultured for 24 h in a humidified incubator at 37° C. and 5% CO2. Cells were then loaded with Fluo-8 calcium indicator dye for 1 h at 37° C. and an additional 30 min at room temperature as per the manufacturer's protocol. […] Kinetic increases in intracellular calcium levels were measured immediately after addition of test compounds every 6.4 s for a total of 3 min using the FlexStation 3 multimode microplate reader and SoftMax Pro 7.1 analysis software (Molecular Devices, moleculardevices.com). […] EC50 values were calculated from the normalized data from GraphPad PRISM software.
# 5-HT2A receptor [2] = biological target: T1, 5-HT2A receptor; assay: Functional cell-based 5-HT2A assay, antagonism mode (CHO-K1/5-HT2A, 100 nM serotonin, calcium flux); settings: CHO-K1/5-HT2A cells, with 100 nM serotonin
# Text: A variety of 5-HT2A receptor engagement modes have been correlated with positive outcomes in the treatment of neurological disorders. While agonism is associated with a host of favourable effects, antagonizing the 5-HT2A receptor is also an attractive pharmacological approach. For example, antagonism is known to alleviate both dyskinesisa and psychosis in Parkinson's Disorder and holds promise for other psychiatric diseases (Mestre et al., 2013, Expert Opin. Investig. Drugs 22:411-421). Similarly positive outcomes are noted for inverse agonists (Cummings et al., 2014, Lancet, 383:533-540; Roberts, 2006, Curr. Opin. Invest. Drugs 7:653-660). […]
# Stimulation of 5-HT2A coupled to the Gq family proteins leads to activation of the phospholipase C (PLC) pathway, ultimately resulting in the accumulation of cytosolic calcium (Cussac et al., Europ. J. Pharmacol., 2008, 594 (1-3), 32-38). […] Kinetic increases in intracellular calcium levels were measured immediately after addition of ligands every 6.4 s for a total of 3 min using the FlexStation 3 multimode microplate reader and SoftMax Pro 7.1 analysis software (Molecular Devices, moleculardevices.com). […] IC50 values were calculated from the normalized data from GraphPad PRISM software. […]
# [3] = test system: stressed C57BL/6-Elite mice; assay: Mouse marble burying (MB) assay to assess anxiolytic potential; format: in vivo; settings: i.p., psilocin 3 mg/kg, compound (XV) 10 mg/kg; vs Vehicle+Stress
# Experimental: Marble burying behavior is used to measure the level of anxiety in a rodent when it encounters unfamiliar objects (Deacon, 2006, Nature Protocols 1:122-124). This assay is routinely applied to the study of chronically stressed mice, where drug candidates are evaluated for an ability to diminish stress-induced, anxiety-like behaviours (e.g., Wang et al., ACS Chem. Neurosci. 14:977-987). Positive results in this assay may be interpreted as an indication of therapeutic (anxiolytic) potential in the treatment of various psychiatric disorders. Herein, we applied the marble burying model to investigate whether selected drugs could alleviate anxiety behaviour in stressed mice.
# All animal protocols were approved by the University of Calgary Animal Care and Use Committee. C57BL/6-Elite mixed sex mice were obtained from Charles River Laboratories (Toronto, Canada) at 8-9 weeks old. […]
# On the testing days, 10 glass marbles (approx. 15 mm in diameter) were evenly spaced on 5 cm of wood-chip bedding (lightly tamped down to make a flat and even surface). […] The number of marbles buried to ⅔rds their depth was measured. Fully buried marbles were counted as 1 and partially (at least ⅔rds) buried marbles were counted as 0.5. […]
# [4] = test system: stressed C57BL/6-Elite mice; assay: Mouse sucrose preference (SP) assay to assess antidepressant potential; format: in vivo; settings: i.p., psilocin 3 mg/kg, compound (XV) 10 mg/kg; one day after administration
# Experimental: Reduced intake of pleasurable substances, e.g., of sucrose water, is a validated behavioral measure of anhedonic/depressive-like state in rodents (Moreau et al., 1992, Eur. Neurpsychopharmocol. 2:43-49; Liu et al., 2018, Nature Protocols 13:1686-1698). […] In the SP assay, cohorts of mice are pre-stressed, leading to a depressed state. The ability of drugs to rescue this state are evaluated.
# All animal protocols were approved by the University of Calgary Animal Care and Use Committee. C57BL/6-Elite mixed sex mice were obtained from Charles River Laboratories (Toronto, Canada) at 8-9 weeks old. Mice were maintained on a 12:12 h light/dark schedule (lights on at 07:00 hours) with ad libitum access to food and water and group-housed until 2 days prior to the start of the mild chronic stress paradigm, then mice were single-housed. […]
# Mice were introduced to 1% sucrose solution in their drinking water for 24 hrs for 2 days prior to initial sucrose preference testing to reduce impact of novelty. […] The consumption in water, sucrose solution, and total intake of liquids was measured by weighing each bottle before and after the 24-hr experiment. The preference for sucrose was calculated as a percentage of the consumed sucrose solution from the total intake of both water and sucrose solutions. […]
# T1 sequence (P28223 whole entry): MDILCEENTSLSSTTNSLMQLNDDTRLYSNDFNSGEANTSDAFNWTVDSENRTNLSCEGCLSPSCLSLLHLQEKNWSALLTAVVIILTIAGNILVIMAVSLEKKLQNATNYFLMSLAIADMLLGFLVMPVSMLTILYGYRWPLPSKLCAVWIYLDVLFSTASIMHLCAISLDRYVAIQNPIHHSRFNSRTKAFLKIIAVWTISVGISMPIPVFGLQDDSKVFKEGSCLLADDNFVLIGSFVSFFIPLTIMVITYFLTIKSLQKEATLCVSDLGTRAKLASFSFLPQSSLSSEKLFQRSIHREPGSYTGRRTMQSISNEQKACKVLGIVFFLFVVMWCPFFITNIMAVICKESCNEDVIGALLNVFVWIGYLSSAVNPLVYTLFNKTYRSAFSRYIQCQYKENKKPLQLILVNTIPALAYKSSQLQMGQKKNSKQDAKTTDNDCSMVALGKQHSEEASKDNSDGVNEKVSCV
structure (smiles),measurement,setting,value
CN(C)CCc1c[nH]c2cc(F)cc(N3CCOCC3)c12 [Compound (XV)],"engagement at the 5-HT2A receptor, agonist mode",5-HT2A receptor [1],agonism
same,"engagement at the 5-HT2A receptor, antagonist mode",5-HT2A receptor [2],antagonism
same,anxiety-linked (marble burying) behavior in stressed mice,[3],alleviated
same,sucrose preference behaviour in stressed mice vs no drug control,[4],significant preference for sucrose
